From patent publication US20260248767A1, “METHODS FOR INDUCING FERROPTOSIS IN CANCER” (Board of Regents, The University of Texas System, priority 2023, published 2026)
“Also recorded” adds a separate entry of the source.

Biological target: T1, SHMT2 protein (Homo sapiens, UniProt P34897)
T1 construct: endogenous in cells
T1 sequence (P34897 30-504): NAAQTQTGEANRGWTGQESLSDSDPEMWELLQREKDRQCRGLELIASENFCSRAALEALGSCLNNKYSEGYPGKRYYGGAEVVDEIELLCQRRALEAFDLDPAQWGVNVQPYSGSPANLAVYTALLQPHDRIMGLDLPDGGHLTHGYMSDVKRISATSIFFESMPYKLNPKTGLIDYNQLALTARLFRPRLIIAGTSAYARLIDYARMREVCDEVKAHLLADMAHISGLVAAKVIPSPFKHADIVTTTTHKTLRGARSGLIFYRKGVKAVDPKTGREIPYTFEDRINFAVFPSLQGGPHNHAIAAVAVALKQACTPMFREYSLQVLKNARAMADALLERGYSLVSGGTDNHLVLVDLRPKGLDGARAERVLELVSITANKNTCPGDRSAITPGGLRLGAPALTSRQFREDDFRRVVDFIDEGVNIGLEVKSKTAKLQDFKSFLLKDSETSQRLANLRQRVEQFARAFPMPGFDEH
Assay: SHMT2 tetramer formation (immunoblot)
Format: cell-based
Conditions: sulfite treatment
From the text: Exogenously expressed SHMT2 was also able to form tetramer (FIG. 8B).
To generate cell lines with stable overexpression of C-terminal-tagged SHMT2, the SHMT2 cDNA was cloned into the lentivirus expression vector pLEX_307 SFB. HEK293T cells were transfected with either pLEX_307 SFB-empty vector, or -SHMT2, together with the lentiviral packaging plasmids psPAX2 and pMD2.G using Lipofectamine 2000 reagent (Life Technologies, #11668030) according to the manufacturer's instructions and as described previously (Lei, G. et al. Oncogene 40, 3533-3547, doi: 10.1038/s41388-021-01790-w (2021); Lei, G. et al. Cell Res 30, 146-162, doi: 10.1038/s41422-019-0263-3 (2020)). Forty-eight hours later, lentivirus was collected and filtered, and the target cell lines were infected with lentivirus. Twenty-four hours after infection, antibiotic was added to the medium to obtain stable cell lines. Protein expression levels were determined by immunoblotting. To generate knockdown cell lines, lentiviral transduction with IDH1/ME1/MTHFD21 shRNA vectors was conducted as described previously (Lin, A. et al. Cancer Res 74, 1682-1693, doi: 10.1158/0008-5472.CAN-13-1729 (2014)). Forty-eight hours later, upon puromycin antibiotic selection, protein expression levels were determined by immunoblotting.
Briefly, cells were lysed in NP-40 lysis buffer (50 mM Tris [pH 7.4], 250 mM NaCl, 5 mM EDTA, 50 mM NaF, 1 mM Na3VO4, 1% Nonidet P40) containing complete mini protease inhibitors (Roche). The protein concentration of lysates was quantified using BCA Protein Assay Kit from Life Technologies (#23227). 20 μg of total protein was loaded into SDS-PAGE gel and transferred to a PVDF membrane (Bio-Rad) using standard techniques. […]

O=S([O-])[O-].[Na+].[Na+] [sulfite, sodium sulfite]
tetramer formation of endogenous SHMT2 protein: disrupt the tetramer formation; also recorded: inhibits the tetramer formation | tetramer formation of exogenous expressed SHMT2: inhibit the tetramer formation | tetramer formation of exogenous expressed SHMT2 (listed as Sulfite): inhibited the tetramer formation
